The test system of data set [1] is rats. Nature of the data set: Penile erection test using rats. In kind it is in vivo, rat. The settings on record: oral single dose 10 mg/kg in 0.5% methyl cellulose, observed for 2 hours.
Data set [2] has as its target T1, Phosphodiesterase-5 enzyme (PDE 5) (Homo sapiens, UniProt O76074).
T1 construct: separated by HPLC (Mono Q anion exchange column) with concentration gradient of 0-500 mM NaCl to elute PDE isozymes; from tissue; host or cells: human corpus cavernosal tissue
Put plainly: Test for phosphodiesterase-5 (PDE 5) activity. In kind it is biochemical. The settings on record: PDE 5 fraction from human corpus cavernosal tissues.

The target in data set [3] is T2, Phosphodiesterase-3 enzyme (PDE 3) (Oryctolagus cuniculus, UniProt G1ST54).
T2 construct: The supernatant was separated by DEAE-cellulose column chromatography (Whatman DE52 bead); from tissue; host or cells: rabbit platelets
T2 sequence (G1ST54 1-1128): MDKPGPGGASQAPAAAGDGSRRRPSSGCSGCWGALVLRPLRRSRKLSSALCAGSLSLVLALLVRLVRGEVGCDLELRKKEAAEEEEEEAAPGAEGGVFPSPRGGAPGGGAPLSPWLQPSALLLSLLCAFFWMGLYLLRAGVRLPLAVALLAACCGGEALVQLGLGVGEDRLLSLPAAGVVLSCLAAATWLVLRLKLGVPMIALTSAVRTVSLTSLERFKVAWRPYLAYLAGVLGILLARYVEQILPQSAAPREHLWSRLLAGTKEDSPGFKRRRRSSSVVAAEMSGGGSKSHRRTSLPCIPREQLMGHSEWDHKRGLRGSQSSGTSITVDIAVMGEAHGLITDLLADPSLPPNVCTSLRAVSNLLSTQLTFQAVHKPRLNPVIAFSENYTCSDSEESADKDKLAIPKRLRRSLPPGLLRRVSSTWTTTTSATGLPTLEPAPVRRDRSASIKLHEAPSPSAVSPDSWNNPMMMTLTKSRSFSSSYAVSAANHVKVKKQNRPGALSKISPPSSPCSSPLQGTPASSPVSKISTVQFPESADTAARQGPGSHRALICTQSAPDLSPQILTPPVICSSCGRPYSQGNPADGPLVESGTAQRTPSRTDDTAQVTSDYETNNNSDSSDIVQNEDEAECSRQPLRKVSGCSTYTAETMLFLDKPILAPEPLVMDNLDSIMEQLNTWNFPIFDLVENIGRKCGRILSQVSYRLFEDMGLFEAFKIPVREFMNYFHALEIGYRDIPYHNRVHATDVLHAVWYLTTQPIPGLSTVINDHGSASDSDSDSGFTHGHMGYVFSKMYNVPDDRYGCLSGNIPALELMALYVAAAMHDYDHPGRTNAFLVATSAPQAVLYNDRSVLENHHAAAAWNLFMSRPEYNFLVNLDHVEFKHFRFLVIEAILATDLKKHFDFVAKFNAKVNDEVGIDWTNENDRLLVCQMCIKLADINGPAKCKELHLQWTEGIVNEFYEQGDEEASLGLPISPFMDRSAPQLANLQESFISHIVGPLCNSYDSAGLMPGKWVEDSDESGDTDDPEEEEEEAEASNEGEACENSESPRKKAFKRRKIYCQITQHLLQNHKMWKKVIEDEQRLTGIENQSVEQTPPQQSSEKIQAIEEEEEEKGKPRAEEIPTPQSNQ
Put plainly: Test for phosphodiesterase-3 (PDE 3) activity. The conditions noted are these: PDE 3 fraction from platelets of a rabbit. In kind it is biochemical. The procedure, abridged:
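PDE3 taken from rabbit platelets as a DEAE-cellulose fraction, incubated with inhibitor and [3H]-cAMP or [3H]-cGMP (500 nM) for about 1 h at 30° C, pH 7.4. Product converted by snake venom or 5′-nucleotidase, unreacted substrate removed on anion-exchange resin, supernatant radioactivity counted by β-counter.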

Data set [4] is described as follows: Acute oral toxicity test in rats. The conditions noted are these: SD, rat, in vivo.
Data set [5] is described as follows: Solubility in buffer solution in pH=2&5. The format is physicochemical. The settings on record: for solubility at 30 min: 20 °C, thermodynamic from solid. The procedure: According to that defined in the Korea Pharmacopoeia, citrate-HCl buffer (pH 2) and citrate-NaOH buffer (pH 5) solutions were added to the powdered compounds of formula 1, respectively. After subsequent severe shaking for 30 sec every 5 min in […] for 30 min, the level of compounds in the filtrate was measured by high performance liquid chromatography.

Data set [6] can be described thus: Metabolism in rat liver (9,000xg supernatant fraction with NADPH). In kind it is in vitro ADME. The settings on record: 10 ug/ml, 37° C., 1 hr, rat liver 9,000xg supernatant with NADPH generating solution. The procedure:
In order to evaluate the extent of metabolism of the compounds of formula 1, the metabolism in rat liver was studied as below similar to the reported method (C. L. Litterist, E. G. Mimnaugh, R. I. Reagan and T. G. Gram., Drug. Metabol. Disposit., 1975, 3, 259-265). In short, the disappearance of compounds after incubation in 9, 000×g supernatant fraction of rat liver homogenate in the presence of NADPH (reduced nicotinamide adenine dinucleotide phosphate) was evaluated.
First, Sprague-Dawley rat (Korea Experiment Animals, SPF) liver was isolated after perfusion through portal vein with 0.1 M phosphate buffer of pH 7.0 using tissue homogenizer at 4° C. After centrifugation at 9,000×g for 20 min, the supernatants were collected.
The compound stock solution was spiked (10 ug/ml) into each of the eppendorf tubes containing 1 ml of the mixed solution composing 1 volume of supernatants and 2 volumes of generating solution. The generating solution contains 1 mM NADP, 10 mM glucose-6-phosphate, 50 mM nicotinamide and 5 MM MgCl2 in 0.1 M phosphate buffer of pH 7.0. After vortex-mixing, each test tube was incubated in a water bath kept at 37° C. After 1 hr, was added acetonitrile to the reaction mixture and centrifuged. 100 ul of aliquot of the supernatant was sampled from each test tube for measuring the remnants by high performance liquid chromatography.

In data set [7] the target is Phosphodiesterase-6 enzyme (PDE 6) (Aquarana catesbeiana, UniProt Z9LGG0MB32+Z9OH76POJ0). Put plainly: Test for phosphodiesterase-6 (PDE 6) activity. In kind it is biochemical, bullfrog. The conditions noted are these: PDE 6 fraction from retina of bullfrogs, trypsin-activated.
Data set [8] deals with men with erectile dysfunction of organic cause. The conditions noted are these: oral administration; cited from earlier work.
[9] abbreviates: 1 g/kg, rats, oral single dose, read-out: lethal dose (LD50) of oral administration.
Where [10] appears, read: citrate-HCl buffer, pH 2, aqueous buffer, citrate-HCl buffer (pH 2), read-out: solubility pH 2.
The mark [11] stands for this setting: citrate-NaOH buffer, pH 5, aqueous buffer, citrate-NaOH buffer (pH 5), read-out: solubility pH 5.

pIC50: −log10 of the molar value. Values after ≈ are worked out from the molar mass of the structure shown. Read-outs that look alike come from different tables or passages of the source. Bounds are passed on as bounds.

Consider `CCCOc1ccc(S(=O)(=O)Nc2ccncc2)cc1-c1nc2c(CCC)nn(C)c2c(=O)[nH]1` [Example 35, 5-[2-propyloxy-5-(4-pyridylamidosulfonyl)phenyl]-1-methyl-3-propyl-1,6-dihydro-7H-pyrazolo(4,3-d)pyrimidin-7-one], for which, in data set [1], the “PEI (penile erection index)” value is given as 200.0 ± 0.0. Moreover, the “genital grooming (number of genital groomings)” value (“genital grooming” below) in data set [1] turned out to be 2.0 ± 0.0. Moreover, the pIC50 is 9.03 in data set [2] and less than 3.68 in data set [3]. Also, in data set [4] (setting [9]), the LD50 was more than 1000 mg/kg. For the same compound, the solubility at 30 min in data set [5] (setting [10]) amounted to 11 µg/mL (≈ 22.8 µM); in data set [5] (setting [11]), 1 µg/mL (≈ 2.07 µM). In addition, the “remnants (%)” value in data set [6] is given as 90.6%.
On to `CCCc1nn(C)c2c(=O)[nH]c(-c3cc(S(=O)(=O)N4CCN(C)CC4)ccc3OCC)nc12` [sildenafil, reference compound], for which the “genital grooming” value in data set [1] is listed as 3.1 ± 1.2. The compound further returned an IC50 in data set [7] of 0.0767 ± 0.00153 µg/mL (≈ 0.162 µM). Further, the pIC50 in data set [3] is 4.15. The solubility at 30 min was 1580 µg/mL (≈ 3340 µM) in data set [5] (setting [10]) and 480 µg/mL (≈ 1010 µM) in data set [5] (setting [11]). Moreover, the response rate entry in data set [8] was “around 80%”.
Turning to `CCOc1ccc(S(=O)(=O)NCCC2CCCN2C)cc1-c1nc2c(CC(C)C)nn(C)c2c(=O)[nH]1` (stereo not drawn) [Example 70, 5-[2-ethoxy-5-(1-methyl-2-pyrrolidinylethylamidosulfonyl)phenyl]-1-methyl-3-isobutyl-1,6-dihydro-7H-pyrazolo(4,3-d)pyrimidin-7-one], the “PEI (penile erection index)” value in data set [1] was determined as 175.0 ± 50.0. Moreover, the “genital grooming” value in data set [1] was determined as 1.8 ± 0.5. Besides, the pIC50 is 7.69 in data set [2] and 4.21 in data set [3]. Also, in data set [4] (setting [9]), the LD50 is more than 1000 mg/kg. Moreover, the solubility at 30 min in data set [5] (setting [10]) came to 795 µg/mL (≈ 1540 µM); in data set [5] (setting [11]), 708 µg/mL (≈ 1370 µM). Also, in data set [6], the “remnants (%)” value amounted to 94.1%.
Consider `CCCOc1ccc(S(=O)(=O)NCc2ccncc2)cc1-c1nc2c(CCC)nn(C)c2c(=O)[nH]1` [Example 44, 5-[2-propyloxy-5-(4-pyridylmethylamidosulfonyl)phenyl]-1-methyl-3-propyl-1,6-dihydro-7H-pyrazolo(4,3-d)pyrimidin-7-one], for which the “PEI (penile erection index)” value in data set [1] amounted to 166.7 ± 115.5. For the same compound, the “genital grooming” value in data set [1] is 1.3 ± 0.6. In addition, the pIC50 was 9.48 in data set [2] and 4.90 in data set [3]. For the same compound, the LD50 in data set [4] (setting [9]) was more than 1000 mg/kg. Besides, the solubility at 30 min in data set [5] (setting [10]) turned out to be 373 µg/mL (≈ 751 µM); in data set [5] (setting [11]) it was 1 µg/mL (≈ 2.01 µM). In addition, the “remnants (%)” value in data set [6] came out at 49.8%.
Consider `CCCOc1ccc(S(=O)(=O)NCC2CCCN2C)cc1-c1nc2c(CCC)nn(C)c2c(=O)[nH]1` (stereo not drawn) [Example 56, 5-[2-propyloxy-5-(1-methyl-2-pyrrolidinylmethylamidosulfonyl)phenyl]-1-methyl-3-propyl-1,6-dihydro-7H-pyrazolo(4,3-d)pyrimidin-7-one], for which the “PEI (penile erection index)” value in data set [1] is on record as 200.0 ± 81.7. Moreover, the “genital grooming” value in data set [1] is 2.0 ± 0.0. The results for the pIC50 in data set [2] and in data set [3] were 7.85 and less than 3.70, respectively. Besides, the LD50 in data set [4] (setting [9]) was more than 1000 mg/kg. For the same compound, in data set [5] (citrate-HCl buffer (pH 2)), the “solubility pH 2” value is listed as 3918 ug/ml. Further, the results for the solubility at 30 min in data set [5] (setting [10]) and in data set [5] (setting [11]) were 3720 to 5360 µg/mL (≈ 7400 to 10700 µM) and 4920 to 14800 µg/mL (≈ 9790 to 29400 µM), respectively. The “solubility pH 5” value in data set [5] (citrate-NaOH buffer (pH 5)) was 6361 ug/ml. The “remnants (%)” value in data set [6] is reported as 83.9%.
As to `CCCOc1ccc(S(=O)(=O)NCc2cccnc2)cc1-c1nc2c(CCC)nn(C)c2c(=O)[nH]1` [Example 49, 5-[2-propyloxy-5-(3-pyridylmethylamidosulfonyl)phenyl]-1-methyl-3-propyl-1,6-dihydro-7H-pyrazolo(4,3-d)pyrimidin-7-one], in data set [1], the “PEI (penile erection index)” value worked out at 200.0 ± 173.2 and the “genital grooming” value was found to be 1.3 ± 0.6. The compound further showed a pIC50 in data set [2] of 9.52. In data set [3], this compound gave a pIC50 of 4.60. Also, in data set [4] (setting [9]), the LD50 was more than 1000 mg/kg. For the same compound, in data set [5] (setting [10]), the solubility at 30 min came out at 43 µg/mL (≈ 86.6 µM). The “remnants (%)” value in data set [6] came out at 71.3%.
Regarding `CCOc1ccc(S(=O)(=O)NCc2cccnc2)cc1-c1nc2c(CC(C)C)nn(C)c2c(=O)[nH]1` [Example 48, 5-[2-ethoxy-5-(3-pyridylmethylamidosulfonyl)phenyl]-1-methyl-3-isobutyl-1,6-dihydro-7H-pyrazolo(4,3-d)pyrimidin-7-one], in data set [1], the “PEI (penile erection index)” value was 166.7 ± 57.7. Also, in data set [1], the “genital grooming” value was determined as 1.3 ± 0.6. The pIC50 is 9.05 in data set [2] and 4.47 in data set [3]. Moreover, in data set [4] (setting [9]), the LD50 was more than 1000 mg/kg. The solubility at 30 min stood at 114 µg/mL (≈ 230 µM) in data set [5] (setting [10]) and 0.3 µg/mL (≈ 0.604 µM) in data set [5] (setting [11]). Moreover, in data set [6], the “remnants (%)” value turned out to be 66.0%.
Take `CCCOc1ccc(S(=O)(=O)NCCC2CCCN2C)cc1-c1nc2c(CCC)nn(C)c2c(=O)[nH]1` (stereo not drawn) [Example 68, 5-[2-propyloxy-5-(1-methyl-2-pyrrolidinylethylamidosulfonyl)phenyl]-1-methyl-3-propyl-1,6-dihydro-7H-pyrazolo(4,3-d)pyrimidin-7-one]: in data set [1], the “PEI (penile erection index)” value is 233.3 ± 152.8 and the “genital grooming” value worked out at 3.0 ± 2.0. This compound gave a pIC50 in data set [2] of 8.05. This compound gave a pIC50 in data set [3] of 4.15. The same compound yielded an LD50 in data set [4] (po) of more than 1000 mg/kg. The “solubility pH 2” value in data set [5] (citrate-HCl buffer (pH 2)) worked out at 5356 ug/ml. In addition, the solubility at 30 min in data set [5] (setting [10]) was in the range of 3720 to 5360 µg/mL (≈ 7200 to 10400 µM). Further, the “remnants (%)” value in data set [6] turned out to be 93.0%.

These data come from patent publication US6583147B1, “Pyrazolopyrimidinone derivatives for the treatment of impotence” (Dong A Pharm Co., Ltd., priority 1998, dated 2003).
